The nature of the data set: water solubility / miscibility with water. Format: physicochemical.
As to `CCCC[n+]1cccc(C)c1.N#C[N-]C#N` [N-butyl-3-methylpyridinium dicyanamide, 3-Methyl-1-butylpyridinium dicyanamide], the “water solubility (miscibility with water)” value (“water solubility” below) was “water-miscible”.
As to `CCCC[n+]1ccccc1.N#C[N-]C#N` [N-butylpyridinium dicyanamide], the “water solubility” value was “water-miscible”.
Consider `CCCCCCCC[n+]1cccc(C)c1.N#C[N-]C#N` [N-octyl-3-methylpyridinium dicyanamide, 3-Methyl-1-octylpyridinium dicyanamide], for which the “water solubility” value is recorded as “water-immiscible”.
With `CCCCCCCC[n+]1ccccc1.N#C[N-]C#N` [N-octylpyridinium dicyanamide], the “water solubility” value is “water-immiscible”.

The values above are taken from patent US20120330023A1, “Alkyl Pyridinium Dicyanamides and Method For The Production Thereof” (LONZA AG, priority 2004, published 2012).
